Laboratory results reported in EP0405748A1, “Phosphonoderivative of purine with antiviral activity” (Beecham Group p.l.c., priority 1989, dated 1991).
In brackets after ≈: the same amount, converted by molar mass. Where two headings read alike, the source gives them in different places.

Tests used:
Type in all cases: cell-based
[1] = test system: varicella zoster virus (VZV; Ellen strain); assay: Plaque Reduction Test for Varicella Zoster Virus; conditions: Human alphaherpesvirus 3, MRC5, MRC-5 cells, read-out: IC₅₀ against VZV
Method: MRC-5 cells were grown to confluence in 24 well multi-dishes (well diameter = 1.5cm). The drained cell monolayers were each infected with approximately 50 infectious particles of varicella zoster virus (VZV; Ellen strain) in 100µl of phosphate-buffered saline. The virus was adsorbed for 1 hour at room temperature. After adsorption, residual inoculum was removed from each well and replaced with 0.5ml of Eagle's MEM containing 5% heat-inactivated foetal calf serum and 0.9% agarose (A37). Once the agarose had set, dilutions of the test compound, which had been prepared in Eagle's MEM (containing 5% heat-inactivated foetal calf serum), were added, each well receiving 0.5ml of liquid overlay. The test compound was diluted to give the following series of concentrations: 200, 60, 20, 6....0.06µg/ml; final concentrations in the assay ranged, therefore, between 100µg/ml and 0.03µg/ml. The infected cultures were incubated at 37 °C in a humidified atmosphere of 5% CO₂ until plaques were clearly visible (5 or 6 days).
(§1) Cultures from 1 and 2 were fixed in formal saline, the agarose overlays were carefully washed off, and then the cell monolayers were stained with carbol fuchsin. A stereo microscope was used to count plaques. The IC₅₀ (concentration of drug which inhibits the number of plaques formed by 50% relative to the number of plaques observed in virus control monolayers) of the test compound was calculated. In addition, the monolayers were examined for evidence of drug-induced cytotoxicity; the minimum concentration at which cytotoxicity occurred was recorded.

[2] = test system: cytomegalovirus (CMV; AD-169 strain); assay: Plaque Reduction Test for Cytomegalovirus; conditions: Human betaherpesvirus 5, AD169, MRC5, MRC-5 cells, read-out: IC₅₀ against CMV
Method: MRC-5 cells were grown to confluence in 24 well multi-dishes (well diameter = 1.5cm). The drained cell monolayers were each infected with approximately 50 infectious particles of cytomegalovirus (CMV; AD-169 strain) in 100µl of phosphate-buffered saline. The virus wasadsorbed for 1 hour at room temperature. After adsorption, residual inoculum was removed from each well and replaced with 1ml of Eagle's MEM containing 10% heatinactivated foetal calf serum and 0.9% agarose (A37). Once the agarose had set, dilutions of the test compound, which had been prepared in Eagle's MEM (containing 10% heat-inactivated calf serum), wereadded, each well receiving 1ml of liquid overlay. The test compound was diluted to give the following series of concentrations: 200, 60, 20, 6....0.06µg/ml; final concentrations in the assay range, therefore, between 100µg/ml and 0.03µg/ml. The infected cultures were incubated at 37 °C in a humidified atmosphere containing 5% CO₂ until plaques were clearly visible (about 12days). The cultures are fixed in formol saline, the agarose overlays were carefully washed off, and then the cell monolayers were stained with carbol fuchsin. A stereo microscope was used to count plaques. The IC₅₀ (concentration of drug which inhibits the number of plaques formed by 50% relative to the number of plaques observed in virus control monolayers) of the test compound was calculated. In addition, the monolayers were examined for evidence of drug-induced cytotoxicity; the minimum concentration at which cytotoxicity occurs was recorded.

HIV-1 strain virus = assay: HIV Suppression test in peripheral human lymphocytes (p24 ELISA and viral RNA hybridisation); conditions: Human immunodeficiency virus 1, Lymphocyte; for inhibition at 1 µM: Concn. 1 µM; for inhibition at 10 µM: Concn. 10 µM
Method: Peripheral human lymphocytes were prepared, cultivated, and harvested as above. Following the determination of the lymphocyte surface markers, unstimulated and mitogen stimulated cells were combined in a ratio of 1:2.
Under safety conditions these cells are infected with a standard preparation of HIV. The cells are sedimented by centrifugation. The supernatant was discarded and cells were resuspended in the HIV inoculum.
This inoculum is a liquid suspension of HIV-1 strain virus, pretested and adjusted to a titer that results in a synthesis of viral core protein p24 of >100 ng/ml at day four following infection of human lymphocytes according to the protocol.
3x10⁸ lymphocytes were resuspended in 1 ml HIV inoculum and incubated at 37 °C for 60 minutes. Subsequently, the cells were washed two times with 50 ml of culture medium and resuspended in culture medium containing 10 units/ml of human recombinant interleukin-2 to yield a cell concentration of 2x10⁶ cells/ml. 100µl of this cell suspension was added to each well of the microtiter plates containing the diluted solutions of the compounds. The microtiter plates were cultivated in an incubator with a humidified atmosphere and 5% CO₂ at 37 °C.
Accordingly, a fraction of lymphocytes was mock-infected with the same virus preparation that was heat inactivated (30 minutes at 56 °C) prior to infection.
On each of the days 2,3 and 4 post infection one of the microtiter plates which had been established in triplicate was prepared for determination of viral replication. Viral RNA is determined within the cells whereas the viral core protein p24 was detected in the supernatant of the lymphocyte culture.
Accordingly, 150 µl of supernatant were removed from each well and transferred to the well of a microtiter plate containing 50 µl/well of SDS (sodium dodecylsulfate, 0.08%). These plates were stored frozen. 50 µl of stop solution (1% SDS, 20mM sodium acetate, pH 5.0, and 200 µg/ml heparin) were added to the cells remaining in each well. The plates were stored frozen.
The concentration of p24 synthesized by the HIV infected cells was determined by means of a sandwich ELISA, while the concentration of viral RNA was quantitated by nucleic acid hybridisation, using a ³²P-labelled DNA probe for the gag/pol region of the viral genome. Absolute levels of viral antigen and RNA in drug treated samples were compared with untreated, virus-infected controls and the percentage inhibition calculated.

[3] = test system: herpes simplex virus 2 (HSV-2; strain MS); assay: Plaque Reduction Test for Herpes Simplex Virus 2; conditions: Human alphaherpesvirus 2, Vero or MRC-5 cells, read-out: IC₅₀ against HSV-2
Method: (§2) Vero or MRC-5 cells were grown to confluence in 24 well multi-dishes (well diameter = 1.5cm). The drained cell monolayers were each infected with approximately 50 infectious particles of herpes simplex virus 1 (HSV-1; HFEM strain) or herpes simplex virus 2 (HSV-2; strain MS) in 100µl of phosphate-buffered saline. The virus was adsorbed for 1 hour at room temperature. After adsorption, residual inoculum was removed from each well and replaced with 0.5ml of Eagle's MEM containing 5% newborn calf serum and 0.9% agarose (A37). Once the agarose had set, dilutions of the test compound, which had been prepared in Eagle's MEM (containing 5% newborn calf serum), were added, each well receiving 0.5ml of liquid overlay. The test compound was diluted to give the following series of concentrations: 200, 60, 20, 6....0.06µg/ml; final concentrations in the assay ranged, therefore, between 100µg/ml and 0.03µg/ml. The infected cultures were incubated at 37 °C in a humidified atmosphere of 5% CO₂ until plaques were clearly visible (2 or 3 days for Vero cells, usually 1 day for MRC-5 cells).
as §1

[4] = test system: herpes simplex virus 1 (HSV-1; HFEM strain); assay: Plaque Reduction Test for Herpes Simplex Virus 1; conditions: Human alphaherpesvirus 1, Vero or MRC-5 cells, read-out: IC₅₀ against HSV-1 virus
Method: as §2, §1

[5] = 72 h, viral RNA, Day 3 after infection, read-out: % Inhibition on Days 3 and 4 after infection Viral RNA Day 3
[6] = 72 h, viral core protein p24, Day 3 after infection, read-out: % Inhibition on Days 3 and 4 after infection Viral Anitgen Day 3
[7] = 96 h, viral RNA, Day 4 after infection, read-out: % Inhibition on Days 3 and 4 after infection Viral RNA Day 4
[8] = 96 h, viral core protein p24, Day 4 after infection, read-out: % Inhibition on Days 3 and 4 after infection Viral Anitgen Day 4

| Structure (SMILES) | IC50 [1] [µg/mL] | IC50 [2] [µg/mL] | inhibition at 1 µM (HIV-1 strain virus; [5]) [%] | inhibition at 1 µM (HIV-1 strain virus; [6]) [%] | inhibition at 1 µM (HIV-1 strain virus; [7]) [%] | inhibition at 1 µM (HIV-1 strain virus; [8]) [%] | IC50 [3] [µg/mL] | IC50 [4] [µg/mL] | inhibition at 10 µM (HIV-1 strain virus; [5]) [%] | inhibition at 10 µM (HIV-1 strain virus; [6]) [%] | inhibition at 10 µM (HIV-1 strain virus; [7]) [%] | inhibition at 10 µM (HIV-1 strain virus; [8]) [%] |
| --- | --- | --- | --- | --- | --- | --- | --- | --- | --- | --- | --- | --- |
| Nc1nc2c(ncn2OC[C@@H](CO)OCP(=O)(O)O)c(=O)[nH]1 [Example 1, (R)-9-[3-Hydroxy-2-(phosphonomethoxy)propoxy]quanine] | 17 (≈ 50.7 µM) | 3 (≈ 8.95 µM) | 73 | 100 | 54 | 35 | 10 (≈ 29.8 µM) | 7 (≈ 20.9 µM) | – | – | – | – |
| Nc1nc2c(ncn2OC[C@H]2COP(=O)(O)CO2)c(=O)[nH]1 [Example 2, (S)-9-[(2-Hydroxy-2-oxo-1,4,2-dioxaphosphorinan-5-yl)methoxy]quanine] | 13 (≈ 41 µM) | 3 (≈ 9.46 µM) | – | – | – | – | 15 (≈ 47.3 µM) | 21 (≈ 66.2 µM) | 92 | 100 | 32 | 33 |
| Nc1ncnc2c1ncn2OC[C@@H](CO)OCP(=O)(O)O [Example 3, (R)-9-[3-Hydroxy-2-(phosphonomethoxy)propoxy]adenine] | – | – | – | – | – | – | – | – | 83 | 80 | 90 | 91 |
| Nc1nc2c(ncn2OC[C@H](CO)OCP(=O)(O)O)c(=O)[nH]1 [Example 4, (S)-9-[3-Hydroxy-2-(phosphonomethoxy)propoxy]quanine] | 52 (≈ 155 µM) | 29 (≈ 86.5 µM) | 10 | 54 | 14 | 15 | 23 (≈ 68.6 µM) | 25 (≈ 74.6 µM) | – | – | – | – |
| Nc1nc2c(ncn2OC[C@@H]2COP(=O)(O)CO2)c(=O)[nH]1 [Example 5, (R)-9-[(2-Hydroxy-2-oxo-1,4,2-dioxaphosphorinan-5-yl)methoxy]quanine] | 24 (≈ 75.7 µM) | 17 (≈ 53.6 µM) | – | – | – | – | 36 (≈ 113 µM) | 73 (≈ 230 µM) | 64 | 50 | 0 | 7 |
